# Test results taken from US20260199323A1, “LIGAND COMPOUNDS FOR E3 UBIQUITIN LIGASE, PROTEIN DEGRADERS DEVELOPED ON BASIS OF LIGAND COMPOUNDS, AND USES THEREOF” (GLUETACS THERAPEUTICS (SHANGHAI) CO., LTD., priority 2021, published 2026).
# Where two headings read alike, the source gives them in different places.
# What was measured:
# Assay type in all cases: cell-based, Human
# CAL-62 = experiment: CCK-8 tumor cell proliferation, CAL-62; parameters: IC50 for inhibiting the proliferation of tumor cells, CAL-62: scale not given here; conditions: for IC50 for inhibiting the proliferation of tumor cells, CAL-62: 72 h; for IC50: Homo sapiens, Table 18, FAK inhibitor based, CAL-62, read-out: IC50 inhibiting proliferation of tumor cells, CAL-62
# Experimental: (§1) The tumor cells used herein were cultured in a cell culture medium listed in table 4 at 37° C. in an incubator with 5% CO2. Prior to experimentation, all cells used were correctly identified by STR profiling, and tested negative for mycoplasma through routine screenings.
# (§2) IC50 values of the compounds of the present disclosure (including the compounds in Tables 1 and 3, and compounds of examples) were measured using the Meilun Cell Counting Kit-8 kit from Dalian Meilun Biotech Co., Ltd. Assay details are as follows: tumor cells were seeded in a 96-well plate at a density listed in Table 5. After 24 h, 100 μL of the inoculated cells were treated with 0.5 μL of the compounds of the present disclosure (including the compounds in Tables 1 and 3, and compounds of examples) at 10 different successively decreasing concentrations (starting at the highest concentration of 10 μM; 5-fold serial dilutions). After the cells were treated with the compounds of the present disclosure for a period of time, the cell viability detection reagent was added to the culture medium for cell viability assessment according to the instructions provided with the CCK-8 kit. […] The growth inhibition of the compounds of the present disclosure on cells was plotted by Prism Graphpad software, and the IC50 values of the compounds of the present disclosure were calculated therefrom.
# CCRF-CEM = experiment: CCK-8 tumor cell proliferation, CCRF-CEM; parameters: IC50 for inhibiting the proliferation of tumor cells, CCRF-CEM: scale not given here; conditions: for IC50 for inhibiting the proliferation of tumor cells, CCRF-CEM: 96 h
# Experimental: as §1, §2
# SR = experiment: CCK-8 tumor cell proliferation, SR; conditions: for IC50: Homo sapiens, SR, read-out: IC50 inhibiting proliferation of tumor cells, SR
# Experimental: as §1, §2
# MDA-MB-231 = experiment: CCK-8 tumor cell proliferation, MDA-MB-231; conditions: Homo sapiens; Table 18, FAK inhibitor based; MDA-MB-231; read-out: IC50 inhibiting proliferation of tumor cells, MDA-MB-231
# Experimental: as §1, §2
# SW620 = experiment: CCK-8 tumor cell proliferation, SW620; conditions: Homo sapiens, SW-620; Table 14, designed based on CDK4/6 inhibitors; 96 h; read-out: IC50 for inhibiting the proliferation of tumor cells, SW620
# Experimental: as §1, §2
# [1] = Table 12, designed based on CDK9 inhibitors
structure (smiles),measurement,setting,value
"COc1cc(Nc2c(C#N)cnc3cc(OCCCN4CCN(Cc5ccc6c(c5)CN(C5CCC(=O)NC5=O)C6=O)CC4)c(OC)cc23)c(Cl)cc1Cl (stereo not shown) [GT-02968, 4-((2,4-dichloro-5-methoxyphenyl)amino)-7-(3-(4-((2-(2,6-dioxopiperidin-3-yl)-1-oxoisoindolin-5-yl)methyl)piperazin-1-yl)propoxy)-6-methoxyquinoline-3-carbonitrile]","IC50 for inhibiting the proliferation of tumor cells, CAL-62","CAL-62; Table 13, designed based on BCR-ABL inhibitors",A+
"Cc1sc2c(c1C)C(c1ccc(Cl)cc1)=N[C@@H](CC(=O)NCc1ccc3c(c1)CN(C1CCC(=O)NC1=O)C3=O)c1nnc(C)n1-2 (stereo partly drawn) [GT-03378, 2-((S)-4-(4-chlorophenyl)-2,3,9-trimethyl-6H-thieno[3,2-f][1,2,4]triazolo[4,3-a][1,4]diazepin-6-yl)-N-((2-(2,6-dioxopiperidin-3-yl)-1-oxoisoindolin-5-yl)methyl)acetamide]","IC50 for inhibiting the proliferation of tumor cells, CCRF-CEM","CCRF-CEM; Table 16, designed based on BET inhibitors",A+
"COc1cc(N2CCC(N(C)Cc3ccc4c(c3)C(=O)N(C3CCC(=O)NC3=O)C4=O)CC2)ccc1Nc1ncc(Cl)c(Nc2ccccc2P(C)(C)=O)n1 (stereo not shown) [GT-03602, 5-(((1-(4-((5-chloro-4-((2-(dimethylphosphoryl)phenyl)amino)pyrimidin-2-yl)amino)-3-methoxyphenyl)piperidin-4-yl)(methyl)amino)methyl)-2-(2,6-dioxopiperidin-3-yl)isoindoline-1,3-dione]",IC50,"SR; Table 15, ALK inhibitor based",50 to 100 nM
"CN(Cc1ccc2c(c1)CN(C1CCC(=O)NC1=O)C2=O)C1CCN(c2ccc(Nc3ncc(C(F)(F)F)c(NCc4cccc(N(C)S(C)(=O)=O)c4)n3)cc2)CC1 (stereo not shown) [GT-03677, N-(3-(((2-((4-(4-(((2-(2,6-dioxopiperidin-3-yl)-1-oxoisoindolin-5-yl)methyl)(methyl)amino)piperidin-1-yl)phenyl)amino)-5-(trifluoromethyl)pyrimidin-4-yl)amino)methyl)phenyl)-N-methylmethanesulfonamide]",IC50,MDA-MB-231,< 50 nM
"CN(c1cccc(CNc2nc(Nc3ccc(N4CCC(N5CCN(Cc6ccc7c(c6)CN(C6CCC(=O)NC6=O)C7=O)CC5)CC4)cc3)ncc2C(F)(F)F)c1)S(C)(=O)=O (stereo not shown) [GT-03678, N-(3-(((2-((4-(4-(4-((2-(2,6-dioxopiperidin-3-yl)-1-oxoisoindolin-5-yl)methyl)piperazin-1-yl)piperidin-1-yl)phenyl)amino)-5-(trifluoromethyl)pyrimidin-4-yl)amino)methyl)phenyl)-N-methylmethanesulfonamide]",IC50,MDA-MB-231,< 50 nM
"Cc1nc2c(F)cc(-c3nc(Nc4ccc(N5CCN(Cc6ccc7c(c6)CN(C6CCC(=O)NC6=O)C7=O)CC5)cn4)ncc3F)cc2n1C(C)C (stereo not shown) [GT-03688, 3-(5-((4-(6-((5-fluoro-4-(4-fluoro-1-isopropyl-2-methyl-1H-benzo[d]imidazol-6-yl)pyrimidin-2-yl)amino)pyridin-3-yl)piperazin-1-yl)methyl)-1-oxoisoindolin-2-yl)piperidine-2,6-dione]","IC50 for inhibiting the proliferation of tumor cells, SR","SR; Table 14, designed based on CDK4/6 inhibitors, 72 h",A+
"Cc1cnc(Nc2ccc(N3CCC(N(C)Cc4ccc5c(c4)CN(C4CCC(=O)NC4=O)C5=O)CC3)cc2)nc1Nc1cccc(S(=O)(=O)NC(C)(C)C)c1 (stereo not shown) [GT-03690, N-(tert-butyl)-3-((2-((4-(4-(((2-(2,6-dioxopiperidin-3-yl)-1-oxoisoindolin-5-yl)methyl)(methyl)amino)piperidin-1-yl)phenyl)amino)-5-methylpyrimidin-4-yl)amino)benzenesulfonamide]",IC50,MDA-MB-231,< 50 nM
"Cc1cnc(Nc2ccc(N3CCC(N4CCN(Cc5ccc6c(c5)CN(C5CCC(=O)NC5=O)C6=O)CC4)CC3)cc2)nc1Nc1cccc(S(=O)(=O)NC(C)(C)C)c1 (stereo not shown) [GT-03709, N-(tert-butyl)-3-((2-((4-(4-(4-((2-(2,6-dioxopiperidin-3-yl)-1-oxoisoindolin-5-yl)methyl)piperazin-1-yl)piperidin-1-yl)phenyl)amino)-5-methylpyrimidin-4-yl)amino)benzenesulfonamide]",IC50,MDA-MB-231,1000 to 5000 nM
"CNC(=O)c1ccccc1Nc1cc(Nc2ccc(N3CCN(Cc4cccc5c4CN(C4CCC(=O)NC4=O)C5=O)CC3)cc2OC)ncc1C(F)(F)F (stereo not shown) [GT-03718, 2-((2-((4-(4-((2-(2,6-dioxopiperidin-3-yl)-1-oxoisoindolin-4-yl)methyl)piperazin-1-yl)-2-methoxyphenyl)amino)-5-(trifluoromethyl)pyridin-4-yl)amino)-N-methylbenzamide]",IC50,MDA-MB-231,1000 to 5000 nM
same,IC50,"SR; Table 18, FAK inhibitor based",100 to 500 nM
same,IC50,CAL-62,100 to 500 nM
"CNC(=O)c1ccccc1Nc1cc(Nc2ccc(N3CCC(N(C)Cc4cc5c(cc4F)C(=O)N(C4CCC(=O)NC4=O)C5)CC3)cc2OC)ncc1C(F)(F)F (stereo not shown) [GT-03729, 2-((2-((4-(4-(((2-(2,6-dioxopiperidin-3-yl)-6-fluoro-1-oxoisoindolin-5-yl)methyl)(methyl)amino)piperidin-1-yl)-2-methoxyphenyl)amino)-5-(trifluoromethyl)pyridin-4-yl)amino)-N-methylbenzamide]",IC50,MDA-MB-231,50 to 100 nM
same,IC50,"SR; Table 18, FAK inhibitor based",< 50 nM
same,IC50,CAL-62,50 to 100 nM
"CNC(=O)c1ccccc1Nc1cc(Nc2ccc(N3CCC(N(C)Cc4cc(F)c5c(c4)CN(C4CCC(=O)NC4=O)C5=O)CC3)cc2OC)ncc1C(F)(F)F (stereo not shown) [GT-03730, 2-((2-((4-(4-(((2-(2,6-dioxopiperidin-3-yl)-7-fluoro-1-oxoisoindolin-5-yl)methyl)(methyl)amino)piperidin-1-yl)-2-methoxyphenyl)amino)-5-(trifluoromethyl)pyridin-4-yl)amino)-N-methylbenzamide]",IC50,MDA-MB-231,50 to 100 nM
same,IC50,"SR; Table 18, FAK inhibitor based",< 50 nM
same,IC50,CAL-62,< 50 nM
"CNC(=O)c1ccccc1Nc1cc(Nc2ccc(N3CCC(N(C)Cc4cccc5c4CN(C4CCC(=O)NC4=O)C5=O)CC3)cc2OC)ncc1C(F)(F)F (stereo not shown) [GT-03731, 2-((2-((4-(4-(((2-(2,6-dioxopiperidin-3-yl)-1-oxoisoindolin-4-yl)methyl)(methyl)amino)piperidin-1-yl)-2-methoxyphenyl)amino)-5-(trifluoromethyl)pyridin-4-yl)amino)-N-methylbenzamide]",IC50,MDA-MB-231,1000 to 5000 nM
same,IC50,"SR; Table 18, FAK inhibitor based",50 to 100 nM
same,IC50,CAL-62,500 to 1000 nM
O=C1CCC(N2C(=O)c3ccc(CBr)cc3C2=O)C(=O)N1 (stereo not shown) [GT-03788],"IC50 for inhibiting the proliferation of tumor cells, CCRF-CEM","CCRF-CEM; Table 8, designed based on ER inhibitors",A+
"Cn1ncc(-c2nc(NC3CCN(Cc4ccc5c(c4)CN(C4CCC(=O)NC4=O)C5=O)CC3)ncc2Cl)c1CC1CC1 (stereo not shown) [GT-04044, 3-(5-((4-((5-chloro-4-(5-(cyclopropylmethyl)-1-methyl-1H-pyrazol-4-yl)pyrimidin-2-yl)amino)piperidin-1-yl)methyl)-1-oxoisoindolin-2-yl)piperidine-2,6-dione]","IC50 for inhibiting the proliferation of tumor cells, CCRF-CEM",CCRF-CEM; [1],A+
"Cn1ncc(-c2nc(NC3CCN(Cc4ccc5c(c4F)CN(C4CCC(=O)NC4=O)C5=O)CC3)ncc2Cl)c1CC1CC1 (stereo not shown) [GT-04045, 3-(5-((4-((5-chloro-4-(5-(cyclopropylmethyl)-1-methyl-1H-pyrazol-4-yl)pyrimidin-2-yl)amino)piperidin-1-yl)methyl)-4-fluoro-1-oxoisoindolin-2-yl)piperidine-2,6-dione]","IC50 for inhibiting the proliferation of tumor cells, CCRF-CEM",CCRF-CEM; [1],A+
same,"IC50 for inhibiting the proliferation of tumor cells, CAL-62",CAL-62; [1],A+
"Cn1ncc(-c2nc(NC3CCN(Cc4cc5c(cc4F)C(=O)N(C4CCC(=O)NC4=O)C5)CC3)ncc2Cl)c1CC1CC1 (stereo not shown) [GT-04046, 3-(5-((4-((5-chloro-4-(5-(cyclopropylmethyl)-1-methyl-1H-pyrazol-4-yl)pyrimidin-2-yl)amino)piperidin-1-yl)methyl)-6-fluoro-1-oxoisoindolin-2-yl)piperidine-2,6-dione]","IC50 for inhibiting the proliferation of tumor cells, CCRF-CEM",CCRF-CEM; [1],A+
same,"IC50 for inhibiting the proliferation of tumor cells, CAL-62",CAL-62; [1],A+
"CNC(=O)c1ccccc1Nc1cc(Nc2cc(C)c(C3CCN(Cc4ccc5c(c4)C(=O)N(C4CCC(=O)NC4=O)C5=O)CC3)cc2OC(C)C)ncc1C(F)(F)F (stereo not shown) [GT-04083, 2-((2-((4-(1-((2-(2,6-dioxopiperidin-3-yl)-1,3-dioxoisoindolin-5-yl)methyl)piperidin-4-yl)-2-isopropoxy-5-methylphenyl)amino)-5-(trifluoromethyl)pyridin-4-yl)amino)-N-methylbenzamide]",IC50,"CCRF-CEM; Homo sapiens, Table 18, FAK inhibitor based, CCRF-CEM, read-out: IC50 inhibiting proliferation of tumor cells, CCRF-CEM",100 to 500 nM
"CN(C)C(=O)c1cc2cnc(Nc3ccc(N4CCNCC4)cn3)nc2n1C1CCCC1 [Ribociclib, reference compound]",IC50,SW620,> 10000 nM
